In the kinase profiling compilation of Christmann-Franck et al. (2016):

Experiments:
Test in all cases: KINOMEscan competition binding
Details in all cases: compound 10.0 µM
FGFR2 (human) = FGFR2 (human) (UniProt P21802)
CDK18 (human) = CDK18 (human) (UniProt Q07002)
TEK (human) = TEK (human) (UniProt Q02763)
AURKC (human) = AURKC (human) (UniProt Q9UQB9)
AURKB (human) = AURKB (human) (UniProt Q96GD4)
CAMKK1 (human) = CAMKK1 (human) (UniProt Q8N5S9)
[1] = tested on: KIT (human), P10721 [V559D/V654A]
RIPK4 (human) = RIPK4 (human) (UniProt P57078)
SRPK2 (human) = SRPK2 (human) (UniProt P78362)
SIK3 (human) = SIK3 (human) (UniProt Q9Y2K2)
[2] = biological target: JAK1 JH1 catalytic (human) (UniProt P23458)
HIPK4 (human) = HIPK4 (human) (UniProt Q8NE63)
FGFR4 (human) = FGFR4 (human) (UniProt P22455)
CSNK1E (human) = CSNK1E (human) (UniProt P49674)
PIM2 (human) = PIM2 (human) (UniProt Q9P1W9)
PTK2 (human) = PTK2 (human) (UniProt Q05397)
STK38 (human) = STK38 (human) (UniProt Q15208)
YSK4 (human) = YSK4 (human) (UniProt Q56UN5)
DAPK1 (human) = DAPK1 (human) (UniProt P53355)
NEK7 (human) = NEK7 (human) (UniProt Q8TDX7)
MAPK11 (human) = MAPK11 (human) (UniProt Q15759)
TYRO3 (human) = TYRO3 (human) (UniProt Q06418)
CDK2 (human) = CDK2 (human) (UniProt P24941)
PIK3CA (human) = PIK3CA (human) (UniProt P42336)
MUSK (human) = MUSK (human) (UniProt O15146)
ITK (human) = ITK (human) (UniProt Q08881)
TLK1 (human) = TLK1 (human) (UniProt Q9UKI8)
PRKCH (human) = PRKCH (human) (UniProt P24723)
FER (human) = FER (human) (UniProt P16591)
DDR1 (human) = DDR1 (human) (UniProt Q08345)
RIPK2 (human) = RIPK2 (human) (UniProt O43353)
SRMS (human) = SRMS (human) (UniProt Q9H3Y6)
PRPF4B (human) = PRPF4B (human) (UniProt Q13523)
MKNK1 (human) = MKNK1 (human) (UniProt Q9BUB5)
WEE2 (human) = WEE2 (human) (UniProt P0C1S8)
STK3 (human) = STK3 (human) (UniProt Q13188)
Chain of STK3 (human) (Q13188 whole entry, looked up): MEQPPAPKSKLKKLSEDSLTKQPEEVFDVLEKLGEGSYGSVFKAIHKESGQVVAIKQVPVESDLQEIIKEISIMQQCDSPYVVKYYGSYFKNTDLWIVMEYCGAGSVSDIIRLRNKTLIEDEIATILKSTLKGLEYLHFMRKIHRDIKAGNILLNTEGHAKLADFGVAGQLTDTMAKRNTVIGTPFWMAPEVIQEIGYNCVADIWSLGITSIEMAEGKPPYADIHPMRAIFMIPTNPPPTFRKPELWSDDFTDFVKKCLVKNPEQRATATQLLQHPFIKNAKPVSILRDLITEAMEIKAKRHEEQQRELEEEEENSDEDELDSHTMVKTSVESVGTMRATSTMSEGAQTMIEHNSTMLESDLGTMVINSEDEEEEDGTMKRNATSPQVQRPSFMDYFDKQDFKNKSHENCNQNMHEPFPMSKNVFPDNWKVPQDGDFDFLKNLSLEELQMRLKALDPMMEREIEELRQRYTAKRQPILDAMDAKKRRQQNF

Chain of CDK18 (human) (Q07002 whole entry, looked up): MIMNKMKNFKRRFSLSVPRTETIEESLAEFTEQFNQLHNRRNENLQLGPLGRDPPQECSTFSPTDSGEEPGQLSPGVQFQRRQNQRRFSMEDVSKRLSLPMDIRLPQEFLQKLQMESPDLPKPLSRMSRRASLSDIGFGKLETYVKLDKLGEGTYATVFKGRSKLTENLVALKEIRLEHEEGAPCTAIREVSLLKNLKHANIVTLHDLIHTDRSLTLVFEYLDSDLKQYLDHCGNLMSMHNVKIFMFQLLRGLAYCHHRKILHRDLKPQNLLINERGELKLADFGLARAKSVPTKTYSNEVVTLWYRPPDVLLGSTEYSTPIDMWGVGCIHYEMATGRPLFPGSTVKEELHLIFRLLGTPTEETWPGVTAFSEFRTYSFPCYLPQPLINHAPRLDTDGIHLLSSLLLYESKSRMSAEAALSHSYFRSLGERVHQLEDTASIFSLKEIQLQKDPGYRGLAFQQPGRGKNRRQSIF
Chain of YSK4 (human) (Q56UN5 whole entry, looked up): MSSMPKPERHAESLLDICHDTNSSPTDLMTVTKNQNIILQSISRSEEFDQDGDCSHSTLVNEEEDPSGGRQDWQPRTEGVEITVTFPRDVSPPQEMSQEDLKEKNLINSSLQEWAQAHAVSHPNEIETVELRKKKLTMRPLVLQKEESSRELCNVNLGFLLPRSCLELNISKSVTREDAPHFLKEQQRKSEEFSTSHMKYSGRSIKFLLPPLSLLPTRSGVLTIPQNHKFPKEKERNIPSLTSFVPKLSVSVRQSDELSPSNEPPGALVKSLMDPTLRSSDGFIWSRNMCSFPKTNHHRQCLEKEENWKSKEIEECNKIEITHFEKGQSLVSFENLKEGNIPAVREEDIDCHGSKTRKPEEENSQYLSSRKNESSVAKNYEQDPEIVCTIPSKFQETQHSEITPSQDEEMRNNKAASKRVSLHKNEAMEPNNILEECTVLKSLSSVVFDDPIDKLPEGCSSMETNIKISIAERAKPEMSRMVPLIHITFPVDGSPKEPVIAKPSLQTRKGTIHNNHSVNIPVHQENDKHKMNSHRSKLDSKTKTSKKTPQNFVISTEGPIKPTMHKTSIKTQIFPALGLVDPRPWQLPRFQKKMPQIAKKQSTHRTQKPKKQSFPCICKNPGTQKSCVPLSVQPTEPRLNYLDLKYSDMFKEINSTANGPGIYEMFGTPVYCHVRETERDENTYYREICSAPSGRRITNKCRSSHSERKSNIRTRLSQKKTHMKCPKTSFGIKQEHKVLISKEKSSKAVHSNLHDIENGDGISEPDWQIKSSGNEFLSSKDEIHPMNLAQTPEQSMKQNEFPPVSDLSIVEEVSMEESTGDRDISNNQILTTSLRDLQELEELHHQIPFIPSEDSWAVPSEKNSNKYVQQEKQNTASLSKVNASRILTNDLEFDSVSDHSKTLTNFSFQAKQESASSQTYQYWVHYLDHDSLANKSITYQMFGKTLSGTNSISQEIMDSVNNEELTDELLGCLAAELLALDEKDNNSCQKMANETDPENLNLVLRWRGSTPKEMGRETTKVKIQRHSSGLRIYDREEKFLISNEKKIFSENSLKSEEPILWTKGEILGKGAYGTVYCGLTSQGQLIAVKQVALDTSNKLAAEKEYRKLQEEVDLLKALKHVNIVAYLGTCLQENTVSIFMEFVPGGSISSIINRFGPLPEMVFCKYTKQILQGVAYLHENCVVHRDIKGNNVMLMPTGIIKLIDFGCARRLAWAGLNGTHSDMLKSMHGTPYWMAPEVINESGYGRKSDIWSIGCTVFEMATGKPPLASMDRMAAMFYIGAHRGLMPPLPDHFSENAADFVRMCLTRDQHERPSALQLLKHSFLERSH
Chain of TEK (human) (Q02763 whole entry, looked up): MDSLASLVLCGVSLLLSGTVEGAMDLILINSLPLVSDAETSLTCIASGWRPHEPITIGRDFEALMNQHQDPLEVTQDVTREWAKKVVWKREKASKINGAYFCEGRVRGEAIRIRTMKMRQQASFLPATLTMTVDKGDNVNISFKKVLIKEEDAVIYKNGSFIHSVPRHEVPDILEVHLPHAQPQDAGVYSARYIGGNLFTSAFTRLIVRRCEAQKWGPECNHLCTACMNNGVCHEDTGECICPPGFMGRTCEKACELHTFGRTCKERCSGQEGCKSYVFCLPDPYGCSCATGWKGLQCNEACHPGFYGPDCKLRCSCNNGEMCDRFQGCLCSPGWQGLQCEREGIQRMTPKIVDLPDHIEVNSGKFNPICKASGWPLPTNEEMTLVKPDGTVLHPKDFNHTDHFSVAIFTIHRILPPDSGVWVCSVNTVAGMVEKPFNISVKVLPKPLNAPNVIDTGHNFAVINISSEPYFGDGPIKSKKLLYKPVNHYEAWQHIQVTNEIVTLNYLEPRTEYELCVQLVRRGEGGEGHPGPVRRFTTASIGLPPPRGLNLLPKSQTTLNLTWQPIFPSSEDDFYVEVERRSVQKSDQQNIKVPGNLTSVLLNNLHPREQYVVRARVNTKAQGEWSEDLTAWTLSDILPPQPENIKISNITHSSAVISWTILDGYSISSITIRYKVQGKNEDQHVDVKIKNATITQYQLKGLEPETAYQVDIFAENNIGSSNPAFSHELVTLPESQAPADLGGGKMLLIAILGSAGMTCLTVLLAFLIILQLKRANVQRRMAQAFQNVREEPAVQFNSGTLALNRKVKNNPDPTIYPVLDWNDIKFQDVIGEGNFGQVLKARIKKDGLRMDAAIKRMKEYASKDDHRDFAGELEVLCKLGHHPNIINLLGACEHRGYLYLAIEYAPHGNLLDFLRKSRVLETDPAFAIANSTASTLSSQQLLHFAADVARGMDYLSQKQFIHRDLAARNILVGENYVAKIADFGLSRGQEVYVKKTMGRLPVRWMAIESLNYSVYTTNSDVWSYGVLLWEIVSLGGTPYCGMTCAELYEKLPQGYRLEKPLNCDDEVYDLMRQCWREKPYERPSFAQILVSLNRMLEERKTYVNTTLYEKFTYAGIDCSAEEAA
Chain of DDR1 (human) (Q08345 whole entry, looked up): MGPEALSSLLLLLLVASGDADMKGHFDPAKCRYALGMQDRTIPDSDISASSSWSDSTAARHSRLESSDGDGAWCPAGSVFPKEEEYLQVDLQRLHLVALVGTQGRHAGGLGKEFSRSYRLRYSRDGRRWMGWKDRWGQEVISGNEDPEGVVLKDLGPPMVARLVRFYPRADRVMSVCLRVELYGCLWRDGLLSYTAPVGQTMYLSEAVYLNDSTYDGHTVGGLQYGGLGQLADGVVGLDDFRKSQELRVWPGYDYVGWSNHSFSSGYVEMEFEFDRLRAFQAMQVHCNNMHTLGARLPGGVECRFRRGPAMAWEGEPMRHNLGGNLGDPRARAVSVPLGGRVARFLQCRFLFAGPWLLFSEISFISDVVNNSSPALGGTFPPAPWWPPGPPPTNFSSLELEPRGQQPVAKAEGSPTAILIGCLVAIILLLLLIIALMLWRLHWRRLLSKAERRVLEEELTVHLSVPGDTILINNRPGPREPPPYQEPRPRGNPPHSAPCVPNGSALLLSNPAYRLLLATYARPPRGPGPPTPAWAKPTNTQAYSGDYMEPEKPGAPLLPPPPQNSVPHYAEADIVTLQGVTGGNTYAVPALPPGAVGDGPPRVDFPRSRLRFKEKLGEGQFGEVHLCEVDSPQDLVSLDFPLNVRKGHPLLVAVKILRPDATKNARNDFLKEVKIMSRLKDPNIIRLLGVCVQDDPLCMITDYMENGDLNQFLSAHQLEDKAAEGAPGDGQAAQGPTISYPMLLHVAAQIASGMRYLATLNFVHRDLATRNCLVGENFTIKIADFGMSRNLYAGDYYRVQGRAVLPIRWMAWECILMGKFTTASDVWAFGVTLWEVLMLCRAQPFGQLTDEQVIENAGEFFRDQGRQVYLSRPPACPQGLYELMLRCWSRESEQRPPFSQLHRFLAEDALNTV
Chain of PRKCH (human) (P24723 whole entry, looked up): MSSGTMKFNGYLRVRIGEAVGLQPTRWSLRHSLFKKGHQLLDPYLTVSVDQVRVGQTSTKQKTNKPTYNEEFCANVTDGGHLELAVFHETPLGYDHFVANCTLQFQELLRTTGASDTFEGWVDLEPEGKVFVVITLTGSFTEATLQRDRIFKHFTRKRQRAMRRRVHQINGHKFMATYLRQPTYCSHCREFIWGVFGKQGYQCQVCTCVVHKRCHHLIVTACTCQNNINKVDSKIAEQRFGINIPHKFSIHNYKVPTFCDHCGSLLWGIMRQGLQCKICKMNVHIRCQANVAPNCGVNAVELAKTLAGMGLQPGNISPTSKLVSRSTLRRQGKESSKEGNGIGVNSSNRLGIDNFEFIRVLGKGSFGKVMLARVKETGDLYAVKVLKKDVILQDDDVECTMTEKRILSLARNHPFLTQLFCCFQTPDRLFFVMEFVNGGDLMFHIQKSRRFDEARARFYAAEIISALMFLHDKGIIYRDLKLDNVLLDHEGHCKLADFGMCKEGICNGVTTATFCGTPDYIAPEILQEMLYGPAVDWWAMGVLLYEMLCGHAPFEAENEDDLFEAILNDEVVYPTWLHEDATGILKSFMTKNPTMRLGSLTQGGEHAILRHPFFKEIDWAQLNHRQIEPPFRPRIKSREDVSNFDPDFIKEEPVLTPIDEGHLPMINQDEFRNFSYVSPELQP

kinase still bound, per cent of control (FGFR2 (human)) [%]	kinase still bound, per cent of control (CDK18 (human)) [%]	kinase still bound, per cent of control (TEK (human)) [%]	kinase still bound, per cent of control (AURKC (human)) [%]	kinase still bound, per cent of control (AURKB (human)) [%]	kinase still bound, per cent of control (CAMKK1 (human)) [%]	kinase still bound, per cent of control [1] [%]	kinase still bound, per cent of control (RIPK4 (human)) [%]	kinase still bound, per cent of control (SRPK2 (human)) [%]	kinase still bound, per cent of control (SIK3 (human)) [%]	kinase still bound, per cent of control [2] [%]	kinase still bound, per cent of control (HIPK4 (human)) [%]	kinase still bound, per cent of control (FGFR4 (human)) [%]	kinase still bound, per cent of control (CSNK1E (human)) [%]	kinase still bound, per cent of control (PIM2 (human)) [%]	kinase still bound, per cent of control (PTK2 (human)) [%]	kinase still bound, per cent of control (STK38 (human)) [%]	kinase still bound, per cent of control (YSK4 (human)) [%]	kinase still bound, per cent of control (DAPK1 (human)) [%]	kinase still bound, per cent of control (NEK7 (human)) [%]	also measured	Compound
100	100	100	100	100	100	100	100	100	100	100	100	5.6	100	100	16	100	100	100	100	kinase still bound, per cent of control (MAPK11 (human)): 100%; kinase still bound, per cent of control (TYRO3 (human)): 100%; kinase still bound, per cent of control (CDK2 (human)): 100%; kinase still bound, per cent of control (PIK3CA (human)): 100%; kinase still bound, per cent of control (MUSK (human)): 100%; kinase still bound, per cent of control (ITK (human)): 100%; kinase still bound, per cent of control (TLK1 (human)): 100%; kinase still bound, per cent of control (PRKCH (human)): 100%; kinase still bound, per cent of control (FER (human)): 32%; kinase still bound, per cent of control (DDR1 (human)): 100%; kinase still bound, per cent of control (RIPK2 (human)): 100%; kinase still bound, per cent of control (SRMS (human)): 100%; kinase still bound, per cent of control (PRPF4B (human)): 100%; kinase still bound, per cent of control (MKNK1 (human)): 100%; kinase still bound, per cent of control (WEE2 (human)): 100%; kinase still bound, per cent of control (STK3 (human)): 100%	COc1cc(N2CCN(C)CC2)ccc1Nc1ncc2c(n1)N(C)c1ccccc1C(=O)N2C
2.6	100	100	100	100	100	100	100	100	100	100	100	0.75	100	100	100	100	100	100	100	kinase still bound, per cent of control (MAPK11 (human)): 100%; kinase still bound, per cent of control (TYRO3 (human)): 100%; kinase still bound, per cent of control (CDK2 (human)): 100%; kinase still bound, per cent of control (PIK3CA (human)): 100%; kinase still bound, per cent of control (MUSK (human)): 100%; kinase still bound, per cent of control (ITK (human)): 100%; kinase still bound, per cent of control (TLK1 (human)): 100%; kinase still bound, per cent of control (PRKCH (human)): 100%; kinase still bound, per cent of control (FER (human)): 100%; kinase still bound, per cent of control (DDR1 (human)): 0.15%; kinase still bound, per cent of control (RIPK2 (human)): 100%; kinase still bound, per cent of control (SRMS (human)): 100%; kinase still bound, per cent of control (PRPF4B (human)): 100%; kinase still bound, per cent of control (MKNK1 (human)): 100%; kinase still bound, per cent of control (WEE2 (human)): 100%; kinase still bound, per cent of control (STK3 (human)): 100%	CCN(CC)CCCCNc1ncc2c(n1)N(C)C(=O)N(c1c(Cl)c(OC)cc(OC)c1Cl)C2
